Calls of active or inactive are those of the source.
Tests used:
Bacillus subtilis = experiment: Antimicrobial activity against Bacillus subtilis assessed as inhibition zone at 200 ug/disk after 24 hrs by disc-diffusion method; type: functional; conditions: read-out: IZ
A498 = experiment: Growth inhibition of human A498 cells at 10 uM after 48 hrs; type: functional
Staphylococcus aureus = experiment: Antimicrobial activity against Staphylococcus aureus assessed as inhibition zone at 200 ug/disk after 24 hrs by disc-diffusion method; type: functional; conditions: read-out: IZ
Pseudomonas aeruginosa = experiment: Antimicrobial activity against Pseudomonas aeruginosa assessed as inhibition zone at 200 ug/disk after 24 hrs by disc-diffusion method; type: functional; conditions: read-out: IZ
SR = experiment: Growth inhibition of human SR cells at 10 uM after 48 hrs; type: functional
MDA-MB-231 = experiment: Growth inhibition of human MDA-MB-231 cells at 10 uM after 48 hrs; type: functional
OVCAR-4 = experiment: Growth inhibition of human OVCAR4 cells at 10 uM after 48 hrs; type: functional
HCT-116 = experiment: Growth inhibition of human HCT116 cells at 10 uM after 48 hrs; type: functional
Malme-3M = experiment: Growth inhibition of human MALME-3M cells at 10 uM after 48 hrs; type: functional
NCI-H226 = experiment: Growth inhibition of human NCI-H226 cells at 10 uM after 48 hrs; type: functional
SNB-19 = experiment: Growth inhibition of human SNB19 cells at 10 uM after 48 hrs; type: functional
UO-31 = experiment: Growth inhibition of human UO31 cells at 10 uM after 48 hrs; type: functional
UACC-257 = experiment: Growth inhibition of human UACC257 cells at 10 uM after 48 hrs; type: functional
K562 = experiment: Growth inhibition of human K562 cells at 10 uM after 48 hrs; type: functional
U-251 = experiment: Growth inhibition of human U251 cells at 10 uM after 48 hrs; type: functional
MDA-MB-468 = experiment: Growth inhibition of human MDA-MB-468 cells at 10 uM after 48 hrs; type: functional
MDA-MB-435 = experiment: Growth inhibition of human MDA-MB-435 cells at 10 uM after 48 hrs; type: functional
SF-539 = experiment: Growth inhibition of human SF539 cells at 10 uM after 48 hrs; type: functional
Candida albicans = experiment: Antimicrobial activity against Candida albicans assessed as inhibition zone at 200 ug/disk after 24 hrs by disc-diffusion method; type: functional; conditions: read-out: IZ
UACC-62 = experiment: Growth inhibition of human UACC62 cells at 10 uM after 48 hrs; type: functional
HOP-92 = experiment: Growth inhibition of human HOP92 cells at 10 uM after 48 hrs; type: functional
HT-29 = experiment: Growth inhibition of human HT-29 cells at 10 uM after 48 hrs; type: functional
SK-MEL-5 = experiment: Growth inhibition of human SK-MEL-5 cells at 10 uM after 48 hrs; type: functional
786-0 = experiment: Growth inhibition of human 786-0 cells at 10 uM after 48 hrs; type: functional
RXF 393 = experiment: Growth inhibition of human RXF393 cells at 10 uM after 48 hrs; type: functional
HCT-15 = experiment: Growth inhibition of human HCT15 cells at 10 uM after 48 hrs; type: functional
KM12 = experiment: Growth inhibition of human KM12 cells at 10 uM after 48 hrs; type: functional
MOLT-4 = experiment: Growth inhibition of human MOLT4 cells at 10 uM after 48 hrs; type: functional
PC-3 = experiment: Growth inhibition of human PC3 cells at 10 uM after 48 hrs; type: functional
T47D = experiment: Growth inhibition of human T47D cells at 10 uM after 48 hrs; type: functional
SK-MEL-28 = experiment: Growth inhibition of human SK-MEL-28 cells at 10 uM after 48 hrs; type: functional, cell-based
HL-60(TB) = experiment: Growth inhibition of human HL-60(TB) cells at 10 uM after 48 hrs; type: functional
SF-295 = experiment: Growth inhibition of human SF295 cells at 10 uM after 48 hrs; type: functional
Escherichia coli = experiment: Antimicrobial activity against Escherichia coli assessed as inhibition zone at 200 ug/disk after 24 hrs by disc-diffusion method; type: functional; conditions: read-out: IZ
CAKI-1 = experiment: Growth inhibition of human CAKI-1 cells at 10 uM after 48 hrs; type: functional
RPMI-8226 = experiment: Growth inhibition of human RPMI8226 cells at 10 uM after 48 hrs; type: functional
A549 = experiment: Growth inhibition of human A549 cells at 10 uM after 48 hrs; type: functional
NCI-H522 = experiment: Growth inhibition of human NCI-H522 cells at 10 uM after 48 hrs; type: functional
Dihydrofolate reductase = molecular target: T1, Dihydrofolate reductase (Bos taurus, UniProt P00376); experiment: Inhibition of bovine liver DHFR
T1 sequence (P00376 whole entry): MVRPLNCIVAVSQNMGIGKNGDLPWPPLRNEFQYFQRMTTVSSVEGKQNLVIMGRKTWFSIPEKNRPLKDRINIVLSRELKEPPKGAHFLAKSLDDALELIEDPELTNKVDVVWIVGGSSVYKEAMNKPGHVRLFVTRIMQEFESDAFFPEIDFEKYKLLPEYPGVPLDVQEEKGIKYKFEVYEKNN

CCRF-CEM = experiment: Growth inhibition of human CCRF-CEM cells at 10 uM after 48 hrs; type: functional
HOP-62 = experiment: Growth inhibition of human HOP62 cells at 10 uM after 48 hrs; type: functional
Hs-578T = experiment: Growth inhibition of human Hs 578T cells at 10 uM after 48 hrs; type: functional
MCF7 = experiment: Growth inhibition of human MCF7 cells at 10 uM after 48 hrs; type: functional

Cc1ccc2nc(Sc3nnc(N)s3)n(-c3ccc(Oc4ccccc4)cc3)c(=O)c2c1
8 mm: zone of inhibition at 200 µg/disc (Bacillus subtilis) | zone of inhibition at 200 µg/disc (Staphylococcus aureus) | zone of inhibition at 200 µg/disc (Pseudomonas aeruginosa) | zone of inhibition at 200 µg/disc (Candida albicans) | zone of inhibition at 200 µg/disc (Escherichia coli)
inactive: growth inhibition (GI) (A498) | growth inhibition (GI) (SR) | growth inhibition (GI) (MDA-MB-231) | growth inhibition (GI) (OVCAR-4) | growth inhibition (GI) (HCT-116) | growth inhibition (GI) (Malme-3M) | growth inhibition (GI) (NCI-H226) | growth inhibition (GI) (SNB-19) | growth inhibition (GI) (UO-31) | growth inhibition (GI) (UACC-257) | growth inhibition (GI) (K562) | growth inhibition (GI) (U-251) | growth inhibition (GI) (MDA-MB-468) | growth inhibition (GI) (MDA-MB-435) | growth inhibition (GI) (SF-539) | growth inhibition (GI) (UACC-62) | growth inhibition (GI) (HOP-92) | growth inhibition (GI) (HT-29) | growth inhibition (GI) (SK-MEL-5) | growth inhibition (GI) (786-0) | growth inhibition (GI) (RXF 393) | growth inhibition (GI) (HCT-15) | growth inhibition (GI) (KM12) | growth inhibition (GI) (MOLT-4) | growth inhibition (GI) (PC-3) | growth inhibition (GI) (T47D) | growth inhibition (GI) (SK-MEL-28) | growth inhibition (GI) (HL-60(TB)) | growth inhibition (GI) (SF-295) | growth inhibition (GI) (CAKI-1) | growth inhibition (GI) (RPMI-8226) | growth inhibition (GI) (A549) | growth inhibition (GI) (NCI-H522) | growth inhibition (GI) (CCRF-CEM) | growth inhibition (GI) (HOP-62) | growth inhibition (GI) (Hs-578T) | growth inhibition (GI) (MCF7)
0.1 µM: IC50 (Dihydrofolate reductase)

Cc1ccc2nc(Sc3nnc(N)s3)n(-c3ccccc3)c(=O)c2c1
8 mm: zone of inhibition at 200 µg/disc (Bacillus subtilis) | zone of inhibition at 200 µg/disc (Staphylococcus aureus) | zone of inhibition at 200 µg/disc (Pseudomonas aeruginosa) | zone of inhibition at 200 µg/disc (Candida albicans) | zone of inhibition at 200 µg/disc (Escherichia coli)
inactive: growth inhibition (GI) (A498) | growth inhibition (GI) (SR) | growth inhibition (GI) (MDA-MB-231) | growth inhibition (GI) (OVCAR-4) | growth inhibition (GI) (HCT-116) | growth inhibition (GI) (Malme-3M) | growth inhibition (GI) (NCI-H226) | growth inhibition (GI) (SNB-19) | growth inhibition (GI) (UO-31) | growth inhibition (GI) (UACC-257) | growth inhibition (GI) (K562) | growth inhibition (GI) (U-251) | growth inhibition (GI) (MDA-MB-468) | growth inhibition (GI) (MDA-MB-435) | growth inhibition (GI) (SF-539) | growth inhibition (GI) (UACC-62) | growth inhibition (GI) (HOP-92) | growth inhibition (GI) (HT-29) | growth inhibition (GI) (SK-MEL-5) | growth inhibition (GI) (786-0) | growth inhibition (GI) (RXF 393) | growth inhibition (GI) (HCT-15) | growth inhibition (GI) (KM12) | growth inhibition (GI) (MOLT-4) | growth inhibition (GI) (PC-3) | growth inhibition (GI) (T47D) | growth inhibition (GI) (SK-MEL-28) | growth inhibition (GI) (HL-60(TB)) | growth inhibition (GI) (SF-295) | growth inhibition (GI) (CAKI-1) | growth inhibition (GI) (RPMI-8226) | growth inhibition (GI) (A549) | growth inhibition (GI) (NCI-H522) | growth inhibition (GI) (CCRF-CEM) | growth inhibition (GI) (HOP-62) | growth inhibition (GI) (Hs-578T) | growth inhibition (GI) (MCF7)
7 µM: IC50 (Dihydrofolate reductase)

COc1ccc(-n2c(Sc3nnc(N)s3)nc3ccc(C)cc3c2=O)cc1
inactive: growth inhibition (GI) (A498) | growth inhibition (GI) (SR) | growth inhibition (GI) (MDA-MB-231) | growth inhibition (GI) (OVCAR-4) | growth inhibition (GI) (HCT-116) | growth inhibition (GI) (Malme-3M) | growth inhibition (GI) (NCI-H226) | growth inhibition (GI) (SNB-19) | growth inhibition (GI) (UO-31) | growth inhibition (GI) (UACC-257) | growth inhibition (GI) (K562) | growth inhibition (GI) (U-251) | growth inhibition (GI) (MDA-MB-468) | growth inhibition (GI) (MDA-MB-435) | growth inhibition (GI) (SF-539) | growth inhibition (GI) (UACC-62) | growth inhibition (GI) (HOP-92) | growth inhibition (GI) (HT-29) | growth inhibition (GI) (SK-MEL-5) | growth inhibition (GI) (786-0) | growth inhibition (GI) (RXF 393) | growth inhibition (GI) (HCT-15) | growth inhibition (GI) (KM12) | growth inhibition (GI) (MOLT-4) | growth inhibition (GI) (PC-3) | growth inhibition (GI) (T47D) | growth inhibition (GI) (SK-MEL-28) | growth inhibition (GI) (HL-60(TB)) | growth inhibition (GI) (SF-295) | growth inhibition (GI) (CAKI-1) | growth inhibition (GI) (RPMI-8226) | growth inhibition (GI) (A549) | growth inhibition (GI) (NCI-H522) | growth inhibition (GI) (CCRF-CEM) | growth inhibition (GI) (HOP-62) | growth inhibition (GI) (Hs-578T) | growth inhibition (GI) (MCF7)
8 mm: zone of inhibition at 200 µg/disc (Bacillus subtilis) | zone of inhibition at 200 µg/disc (Staphylococcus aureus) | zone of inhibition at 200 µg/disc (Pseudomonas aeruginosa) | zone of inhibition at 200 µg/disc (Candida albicans) | zone of inhibition at 200 µg/disc (Escherichia coli)
3 µM: IC50 (Dihydrofolate reductase)

Reference: ChEMBL document CHEMBL3352542, “Synthesis, biological evaluation and molecular modeling study of 2-(1,3,4-thiadiazolyl-thio and 4-methyl-thiazolyl-thio)-quinazolin-4-ones as a new class of DHFR inhibitors” (Bioorg Med Chem Lett, 2014)
